Values of other authors as cited in patent US20100234288A1, “SUSTAINED RELEASE PHARMACEUTICAL COMPOSITION ON THE BASIS OF RELEASE SYSTEM COMPRISING AN ACID-SOLUBLE POLYMER AND A pH-DEPENDENT POLYMER” (PANACEA BIOTEC LTD, priority 2006, published 2010).

## O=C1Cc2cc(CCN3CCN(c4nsc5ccccc45)CC3)c(Cl)cc2N1 [Ziprasidone, 5-[2-[4-(1,2-benzisothiazol-3-yl)-1-piperazinyl]ethyl]-6-chloro-1,3-dihydro-2H-indol-2-one]
After oral administration
  time to reach peak plasma concentrations: 6 to 8 h
Presence of food, gastrointestinal absorption
  effect of food on absorption: doubles the absorption
